PMC3888718, “F-18 Labeled Vasoactive Intestinal Peptide Analogue in the PET Imaging of Colon Carcinoma in Nude Mice” (BioMed Research International, 2013)
Where two headings read alike, the source gives them in different places. Where a SMILES comes first, the peptide text is derived from it. The star is where a group is joined. Benzoyl(4-F) = O=C(c1ccc(F)cc1)*

Key:
[1] = test system: colon carcinoma cells LS174T; settings: mouse, in vivo; cited from earlier work
Source text: Like other neuropeptides, VIP is quickly metabolized in liver and excreted from kidneys. Given this, when VIP is to be used as an imaging agent, chemical modification of its structure is mandatory to extend the biological half-life in order to meet the imaging requirement. […] Pallela et al. labeled VIP analogue (TP3654) by ^99mTc and conducted animal distribution and imaging tests in nude mice transpla ...

VIP receptor = settings: cited from earlier work
Source text: (§1) Since Virgolin initially reported use of ^123I labeled VIP in the imaging study of tumor VIP receptors, several potential ^123I, ^99 mTc, F-18, and ^64Cu labeled VIP analogues have been developed. […] Therefore, our early efforts mainly focused on the structural modification for improving in vivo stability of VIP polypeptide and a series of studie ...

[2] = cited from earlier work
Source text: as §1

C26 colon carcinoma = assay: micro-PET imaging in C26 tumor bearing mice; type: in vivo; settings: micro-PET images, C26 tumor bearing mice
Protocol: (§2) C26 tumor bearing mice were obtained by right subaxillary implantation and were used in PET imaging test when the tumor had grown to the size of about 1 cm. PET imaging test in small animals was performed on a micro-PET R4 scanner (Concorde Microsystems, Siemens, Germany). After sodium pentobarbital anesthesia, C26 tumor bearing mice were injected with 1.5 MBq (40 μCi) [F-18]FB-[R^8,15,21, L^17]-VIP and placed in the central zone of the micro-PET device separately at 5 min, 60 min, and 120 min following injection. They underwent static scanning for 10 min at different points. The original data obtained were transformed into 2D image by Fourier transform and 2D FBP reconstruction.
(§3) Blocking experiment was conducted to explore whether [F-18]FB-[R^8,15,21, L^17]-VIP was receptor-specific. 100 μg of nonlabeled VIP polypeptide mixed with 40 μCi [F-18]FB-[R^8,15,21, L^17]-VIP was injected into each C26 tumor bearing mouse. The imaging experiment with blocking was performed 60 min following injection, using scanning for 10 min and the same procedures and data treatment process as above.

[3] = micro-PET imaging in C26 tumor bearing mice; type: in vivo; settings: nude mice, tumor and muscle, total radioactivity, micro-PET; for tissue to tissue ratio at 1 h: 60 min after injection
Protocol: as §2, §3

[4] = tissue distribution test in normal BALB/C mice; type: in vivo; settings: 100 μCi tail vein, 5-120 min, γ counter, n = 5 per group
Protocol: All animal experiments followed the laboratory animal specifications of Zhongshan Hospital, Fudan University. In order to obtain preliminary in vivo pharmacokinetics data of this radiolabeled polypeptide, 100 μL 3.7 MBq (100 μCi) [F-18]FB-[R^8,15,21, L^17]-VIP was injected into each normal BALB/C mouse through tail vein. 20 mice were assigned to 4 groups evenly. At 5, 30, 60, and 120 min following injection, they were sacrificed under anesthesia. Mice in each group were immediately subject to autopsy, where the organs and tissues of interest, including brain, liver, kidneys, heart, lungs, spleen, stomach, small intestine, muscles, bones, and blood, were collected. All the tissue samples were weighed and their counting were measured by γ counter, so that the percent injected dose per each gram of tissue (% ID/g) was derived.

## ^125I-VIP: ^125I labeled vasoactive intestinal peptide
[1]
  tumor/blood ratio (T/B): 0.88 ± 0.16
  tumor/muscle ratio (T/M): 0.38 ± 0.56

## H-HSDAVFTRNYTRLRRQLAVKRYLNSILN-NH2 [[R^8,15,21, L^17]-VIP, VIP analogue, 28-residue peptide amide, precursor for F-18 labeling]
VIP receptor
  receptor affinity in comparison to native VIP: higher
[2]
  in vivo stability in comparison to native VIP: higher

## CC[C@H](C)[C@H](NC(=O)[C@H](CO)NC(=O)[C@H](CC(N)=O)NC(=O)[C@H](CC(C)C)NC(=O)[C@H](Cc1ccc(O)cc1)NC(=O)[C@H](CCCNC(=N)N)NC(=O)[C@H](CCCCNC(=O)c1ccc(F)cc1)NC(=O)[C@@H](NC(=O)[C@H](C)NC(=O)[C@H](CC(C)C)NC(=O)[C@H](CCC(N)=O)NC(=O)[C@H](CCCNC(=N)N)NC(=O)[C@H](CCCNC(=N)N)NC(=O)[C@H](CC(C)C)NC(=O)[C@H](CCCNC(=N)N)NC(=O)[C@@H](NC(=O)[C@H](Cc1ccc(O)cc1)NC(=O)[C@H](CC(N)=O)NC(=O)[C@H](CCCNC(=N)N)NC(=O)[C@@H](NC(=O)[C@H](Cc1ccccc1)NC(=O)[C@@H](NC(=O)[C@H](C)NC(=O)[C@H](CC(=O)O)NC(=O)[C@H](CO)NC(=O)[C@@H](N)Cc1c[nH]cn1)C(C)C)[C@@H](C)O)[C@@H](C)O)C(C)C)C(=O)N[C@@H](CC(C)C)C(=O)N[C@@H](CC(N)=O)C(N)=O [[F-18]FB-[R^8,15,21, L^17]-VIP] (H-HSDAVFTRNYTRLRRQLAVK(Benzoyl(4-F))RYLNSILN-NH2; N-terminus assumed)
C26 colon carcinoma
  passage through the blood-brain barrier: could not pass through the blood-brain barrier
C26 colon carcinoma; up until 120 min
  bone absorption (in vivo defluorination stability): no marked bone absorption
[3]; mouse, iv, 40 uCi, C26 tumor bearing mice, 40 μCi i.v., 5 min after injection, 10 min static scan, read-out: tumor-to-muscle ratio (T/M)
  tissue to tissue ratio at 5 min: 1.84
[3]; mouse, iv, 40 uCi, C26 tumor bearing mice, 40 μCi, unblocked, read-out: tumor-to-muscle ratio (T/M)
  tissue to tissue ratio at 1 h: 3.03
[3]; mouse, iv, 40 uCi, C26 tumor bearing mice, 40 μCi, 120 min after injection, read-out: tumor-to-muscle ratio (T/M)
  tissue to tissue ratio at 2 h: 3.74
[3]; C26 tumor bearing mouse, 40 μCi mixed with 100 μg nonlabeled VIP, read-out: tumor-to-muscle ratio (T/M), blocking experiment
  tissue to tissue ratio at 1 h: 1.01
[4]
  bone absorption (defluorination stability): low bone absorption
